Test results: patent US11180494B2, “Substituted amino acids as integrin inhibitors” (Pliant Therapeutics, Inc., priority 2018, dated 2021)

Target: human integrin αvβ6 (Homo sapiens (Human), UniProt P06756+P18564)
Test: Proximity-based integrin receptor binding assay (ALPHASCREEN) for inhibitor potency
Conditions: inhibition of binding of TGF-b1 LAP to human integrin αvβ6; values given in ranges
In short: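 AlphaScreen: integrin, compound, TGF-b1 LAP, biotinylated anti-LAP antibody and acceptor beads incubated 2 hours, then streptavidin donor beads 30 minutes, at room temperature in 50 mM Tris-HCl pH 7.5, 0.1% BSA, 1 mM CaCl2 and MgCl2. Excitation 680 nm, emission 520-620 nm; IC50 by four-parameter logistic fit.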

human integrin αvβ6, sequence (P06756 31-992): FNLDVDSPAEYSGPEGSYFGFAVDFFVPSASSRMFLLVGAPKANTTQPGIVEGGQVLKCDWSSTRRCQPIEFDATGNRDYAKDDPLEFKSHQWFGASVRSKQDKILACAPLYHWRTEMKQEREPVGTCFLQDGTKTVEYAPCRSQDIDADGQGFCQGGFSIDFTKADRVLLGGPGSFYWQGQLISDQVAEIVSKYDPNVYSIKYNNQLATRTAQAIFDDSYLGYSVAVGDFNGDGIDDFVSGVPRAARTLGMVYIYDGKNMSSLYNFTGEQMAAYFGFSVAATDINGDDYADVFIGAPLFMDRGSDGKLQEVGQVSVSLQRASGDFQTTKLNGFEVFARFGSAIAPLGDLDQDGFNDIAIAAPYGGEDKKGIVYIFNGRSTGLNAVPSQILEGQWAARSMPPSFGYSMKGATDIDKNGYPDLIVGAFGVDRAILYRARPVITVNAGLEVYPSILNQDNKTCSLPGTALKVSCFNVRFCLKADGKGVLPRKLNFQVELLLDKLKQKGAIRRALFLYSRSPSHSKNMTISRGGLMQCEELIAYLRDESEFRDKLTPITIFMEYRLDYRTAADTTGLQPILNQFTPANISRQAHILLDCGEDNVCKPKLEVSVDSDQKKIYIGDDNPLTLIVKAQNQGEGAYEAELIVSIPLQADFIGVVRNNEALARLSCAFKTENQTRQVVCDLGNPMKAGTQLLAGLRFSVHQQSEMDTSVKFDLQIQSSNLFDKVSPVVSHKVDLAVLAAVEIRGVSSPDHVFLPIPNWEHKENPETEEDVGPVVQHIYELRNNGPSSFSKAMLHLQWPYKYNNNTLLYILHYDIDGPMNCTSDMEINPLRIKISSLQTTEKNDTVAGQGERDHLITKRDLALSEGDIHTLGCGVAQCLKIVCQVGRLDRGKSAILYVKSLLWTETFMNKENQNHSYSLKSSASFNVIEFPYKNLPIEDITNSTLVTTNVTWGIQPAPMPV
human integrin αvβ6, sequence (P18564 22-707): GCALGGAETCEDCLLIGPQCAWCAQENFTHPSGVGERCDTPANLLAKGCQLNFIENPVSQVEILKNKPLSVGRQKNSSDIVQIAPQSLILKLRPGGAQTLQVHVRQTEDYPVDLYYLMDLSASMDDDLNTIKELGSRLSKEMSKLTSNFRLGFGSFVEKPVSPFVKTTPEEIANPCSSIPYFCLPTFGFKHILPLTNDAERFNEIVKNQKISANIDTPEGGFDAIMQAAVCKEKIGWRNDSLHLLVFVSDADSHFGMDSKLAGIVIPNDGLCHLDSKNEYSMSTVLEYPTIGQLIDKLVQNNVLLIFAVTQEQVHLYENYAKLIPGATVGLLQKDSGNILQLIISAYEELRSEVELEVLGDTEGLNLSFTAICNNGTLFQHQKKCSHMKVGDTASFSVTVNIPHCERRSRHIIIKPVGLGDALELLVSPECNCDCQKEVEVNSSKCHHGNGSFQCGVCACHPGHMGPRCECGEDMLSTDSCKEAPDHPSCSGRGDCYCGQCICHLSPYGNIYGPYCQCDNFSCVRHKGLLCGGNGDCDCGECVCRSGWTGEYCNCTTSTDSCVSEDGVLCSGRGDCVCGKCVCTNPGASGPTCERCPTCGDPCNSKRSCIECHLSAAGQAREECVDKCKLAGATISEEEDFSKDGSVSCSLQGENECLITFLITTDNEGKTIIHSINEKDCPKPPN

`CC(C)(C)CC(=O)N[C@@H](CCO[C@H]1C[C@H](CCc2ccc3c(n2)NCCC3)C1)C(=O)O` [Compound 122, N-(3,3-dimethylbutanoyl)-O-(trans-3-(2-(5,6,7,8-tetrahydro-1,8-naphthyridin-2-yl)ethyl)cyclobutyl)homoserine] and `O=C(N[C@@H](CCO[C@H]1C[C@H](CCc2ccc3c(n2)NCCC3)C1)C(=O)O)c1ccccn1` [Compound 35, N-picolinoyl-O-(trans-3-(2-(5,6,7,8-tetrahydro-1,8-naphthyridin-2-yl)ethyl)cyclobutyl)homoserine] fall in the same range of IC50: 50 to 250 nM for the first, 50 to 250 nM for the second.

First: O=C(O)C(CCO[C@H]1C[C@H](CCc2ccc3c(n2)NCCC3)C1)NC(=O)C1(c2ccccc2)CC1 (stereo partly drawn) [Compound 82, N-(1-phenylcyclopropane-1-carbonyl)-O-(trans-3-(2-(5,6,7,8-tetrahydro-1,8-naphthyridin-2-yl)ethyl)cyclobutyl)homoserine]
Second: C[C@H](CNC(=O)OC(C)(C)C)OC(=O)N[C@@H](CCO[C@H]1C[C@H](CCc2ccc3c(n2)NCCC3)C1)C(=O)O [Compound 153, N—((((R)-1-((tert-butoxycarbonyl)amino)propan-2-yl)oxy)carbonyl)-O-(trans-3-(2-(5,6,7,8-tetrahydro-1,8-naphthyridin-2-yl)ethyl)cyclobutyl)homoserine]
The IC50 of the first is higher: 250 to 1000 nM for the first, < 50 nM for the second.

`CC(C)OC(=O)N[C@@H](CCO[C@H]1C[C@H](CCc2ccc3c(n2)NCCC3)C1)C(=O)O` [Compound 116, N-(isopropoxycarbonyl)-O-(trans-3-(2-(5,6,7,8-tetrahydro-1,8-naphthyridin-2-yl)ethyl)cyclobutyl)homoserine] and `O=C(N[C@@H](CCO[C@H]1C[C@H](CCc2ccc3c(n2)NCCC3)C1)C(=O)O)c1c(F)cccc1F` [Compound 32, N-(2,6-difluorobenzoyl)-O-(trans-3-(2-(5,6,7,8-tetrahydro-1,8-naphthyridin-2-yl)ethyl)cyclobutyl)homoserine] cannot be ordered by IC50: < 50 nM for the first, < 50 nM for the second.

Compared with `CC(C)(CC#N)C(=O)NC(CCO[C@H]1C[C@H](CCc2ccc3c(n2)NCCC3)C1)C(=O)O` (stereo partly drawn) [Compound 108, N-(3-cyano-2,2-dimethylpropanoyl)-O-(trans-3-(2-(5,6,7,8-tetrahydro-1,8-naphthyridin-2-yl)ethyl)cyclobutyl)homoserine], `CC1(C(=O)NC(CCO[C@H]2C[C@H](CCc3ccc4c(n3)NCCC4)C2)C(=O)O)COC1` (stereo partly drawn) [Compound 88, N-(3-methyloxetane-3-carbonyl)-O-(trans-3-(2-(5,6,7,8-tetrahydro-1,8-naphthyridin-2-yl)ethyl)cyclobutyl)homoserine] is higher in IC50: < 50 nM for the first, 50 to 250 nM for the second. The first is the more potent here.

Compared with `O=C(NC(CCO[C@H]1C[C@H](CCc2ccc3c(n2)NCCC3)C1)C(=O)O)c1cccc(F)c1Cl` (stereo partly drawn) [Compound 60, N-(2-chloro-3-fluorobenzoyl)-O-(trans-3-(2-(5,6,7,8-tetrahydro-1,8-naphthyridin-2-yl)ethyl)cyclobutyl)homoserine], `CC(=O)N1CC[C@@H](OC(=O)N[C@@H](CCO[C@H]2C[C@H](CCc3ccc4c(n3)NCCC4)C2)C(=O)O)C1` [Compound 139, N—((((R)-1-acetylpyrrolidin-3-yl)oxy)carbonyl)-O-(trans-3-(2-(5,6,7,8-tetrahydro-1,8-naphthyridin-2-yl)ethyl)cyclobutyl)homoserine] is higher in IC50: 50 to 250 nM for the first, > 1000 nM for the second.

First: CC1(OC(=O)N[C@@H](CCO[C@H]2C[C@H](CCc3ccc4c(n3)NCCC4)C2)C(=O)O)CN(S(C)(=O)=O)C1 [Compound 128, N-(((3-methyl-1-(methylsulfonyl)azetidin-3-yl)oxy)carbonyl)-O-(trans-3-(2-(5,6,7,8-tetrahydro-1,8-naphthyridin-2-yl)ethyl)cyclobutyl)homoserine]
Second: N—((R)-2-hydroxy-2-phenylacetyl)-O-(4-(5,6,7,8-tetrahydro-1,8-naphthyridin-2-yl)butyl)-D-homoserine [Compound 77]
The IC50 of the first is lower: 50 to 250 nM for the first, > 1000 nM for the second.

First: O=C(N[C@@H](CCO[C@H]1C[C@H](CCc2ccc3c(n2)NCCC3)C1)C(=O)O)c1cc(F)cc(Cl)c1 [Compound 26, N-(3-chloro-5-fluorobenzoyl)-O-(trans-3-(2-(5,6,7,8-tetrahydro-1,8-naphthyridin-2-yl)ethyl)cyclobutyl)homoserine]
Second: CC1(OC(=O)N[C@@H](CCO[C@H]2C[C@H](CCc3ccc4c(n3)NCCC4)C2)C(=O)O)CNC1 [Compound 130, N-(((3-methylazetidin-3-yl)oxy)carbonyl)-O-(trans-3-(2-(5,6,7,8-tetrahydro-1,8-naphthyridin-2-yl)ethyl)cyclobutyl)homoserine]
The IC50 of the first is lower: < 50 nM for the first, 50 to 250 nM for the second. The first is the more potent here.

`O=C(NC(CCO[C@H]1C[C@H](CCc2ccc3c(n2)NCCC3)C1)C(=O)O)c1ccncc1` (stereo partly drawn) [Compound 37, N-isonicotinoyl-O-(trans-3-(2-(5,6,7,8-tetrahydro-1,8-naphthyridin-2-yl)ethyl)cyclobutyl)homoserine] and `O=C(O)[C@H](CCO[C@H]1C[C@H](CCc2ccc3c(n2)NCCC3)C1)Nc1ncnc2ccccc12` [Example 224, N-(quinazolin-4-yl)-O-(trans-3-(2-(5,6,7,8-tetrahydro-1,8-naphthyridin-2-yl)ethyl)cyclobutyl)homoserine] cannot be ordered by IC50: < 50 nM for the first, < 50 nM for the second.

Compared with `CC(C)(C)COC(=O)N[C@@H](CCO[C@H]1C[C@H](CCc2ccc3c(n2)NCCC3)C1)C(=O)O` [Compound 112, N-((neopentyloxy)carbonyl)-O-(trans-3-(2-(5,6,7,8-tetrahydro-1,8-naphthyridin-2-yl)ethyl)cyclobutyl)homoserine], “N-isonicotinoyl-O-(trans-3-(2-(5,6,7,8-tetrahydro-1,8-naphthyridin-2-yl)ethyl)cyclobutyl)-D-homoserine [Compound 58]” is higher in IC50: 50 to 250 nM for the first, > 1000 nM for the second. The first is the more potent here.

`O=C(O)C(CCO[C@H]1C[C@H](CCc2ccc3cccnc3n2)C1)Nc1ncnc2ccccc12` (stereo partly drawn) [Example 228, O-(trans-3-(2-(1,8-naphthyridin-2-yl)ethyl)cyclobutyl)-N-(quinazolin-4-yl)homoserine] and `O=C(N[C@@H](CCO[C@H]1C[C@H](CCc2ccc3c(n2)NCCC3)C1)C(=O)O)OC1CCCCC1` [Compound 131, N-((cyclohexyloxy)carbonyl)-O-(trans-3-(2-(5,6,7,8-tetrahydro-1,8-naphthyridin-2-yl)ethyl)cyclobutyl)homoserine] cannot be ordered by IC50: < 50 nM for the first, < 50 nM for the second.

`CC(C)(C)OC(=O)N1CC[C@H](OC(=O)N[C@@H](CCO[C@H]2C[C@H](CCc3ccc4c(n3)NCCC4)C2)C(=O)O)C1` [Compound 133, N—((((S)-1-(tert-butoxycarbonyl)pyrrolidin-3-yl)oxy)carbonyl)-O-(trans-3-(2-(5,6,7,8-tetrahydro-1,8-naphthyridin-2-yl)ethyl)cyclobutyl)homoserine] and `CC1(OC(=O)N[C@@H](CCO[C@H]2C[C@H](CCc3ccc4c(n3)NCCC4)C2)C(=O)O)CC1` [Compound 113, N-((1-methylcyclopropoxy)carbonyl)-O-(trans-3-(2-(5,6,7,8-tetrahydro-1,8-naphthyridin-2-yl)ethyl)cyclobutyl)homoserine] cannot be ordered by IC50: < 50 nM for the first, < 50 nM for the second.

First: CC(=O)NC[C@@H](C)OC(=O)N[C@@H](CCO[C@H]1C[C@H](CCc2ccc3c(n2)NCCC3)C1)C(=O)O [Compound 154, N—((((R)-1-acetamidopropan-2-yl)oxy)carbonyl)-O-(trans-3-(2-(5,6,7,8-tetrahydro-1,8-naphthyridin-2-yl)ethyl)cyclobutyl)homoserine]
Second: O=C(N[C@@H](CCO[C@H]1C[C@H](CCc2ccc3c(n2)NCCC3)C1)C(=O)O)c1cccc(C2CC2)c1 [Compound 56, N-(3-cyclopropylbenzoyl)-O-(trans-3-(2-(5,6,7,8-tetrahydro-1,8-naphthyridin-2-yl)ethyl)cyclobutyl)homoserine]
The IC50 of the first is higher: 250 to 1000 nM for the first, 50 to 250 nM for the second.

First: O=C(O)C(CCO[C@H]1C[C@H](CCc2ccc3c(n2)NCCC3)C1)NC(=O)[C@H](O)c1ccccc1 (stereo partly drawn) [Compound 81, N—((R)-2-hydroxy-2-phenylacetyl)-O-(trans-3-(2-(5,6,7,8-tetrahydro-1,8-naphthyridin-2-yl)ethyl)cyclobutyl)homoserine]
Second: Cn1cc(-c2cccc(C(=O)NC(CCOCCCCc3ccc4c(n3)NCCC4)C(=O)O)c2)cn1 (stereo not shown) [Compound 73, N-(3-(1-methyl-1H-pyrazol-4-yl)benzoyl)-O-(4-(5,6,7,8-tetrahydro-1,8-naphthyridin-2-yl)butyl)homoserine]
The IC50 of the first is higher: > 1000 nM for the first, 50 to 250 nM for the second. The second is the more potent here.

`CC1(C(=O)N[C@@H](CCO[C@H]2C[C@@H](CCc3ccc4c(n3)NCCC4)C2)C(=O)O)CCOCC1` [Compound 179, N-(4-methyltetrahydro-2H-pyran-4-carbonyl)-O-(cis-3-(2-(5,6,7,8-tetrahydro-1,8-naphthyridin-2-yl)ethyl)cyclobutyl) homoserine] and `O=C(N[C@@H](CCO[C@H]1C[C@H](CCc2ccc3c(n2)NCCC3)C1)C(=O)O)O[C@H]1CCNC1` [Compound 134, N—((((S)-pyrrolidin-3-yl)oxy)carbonyl)-O-(trans-3-(2-(5,6,7,8-tetrahydro-1,8-naphthyridin-2-yl)ethyl)cyclobutyl)homoserine] fall in the same range of IC50: 50 to 250 nM for the first, 50 to 250 nM for the second.

`O=C(N[C@@H](CCO[C@H]1C[C@H](CCc2ccc3c(n2)NCCC3)C1)C(=O)O)C1CCc2ccccc21` (single isomer, unassigned) [96*,††] and `CC(C)(Cc1ccccc1)C(=O)NC(CCO[C@H]1C[C@H](CCc2ccc3c(n2)NCCC3)C1)C(=O)O` (stereo partly drawn) [Compound 85, N-(2,2-dimethyl-3-phenylpropanoyl)-O-(trans-3-(2-(5,6,7,8-tetrahydro-1,8-naphthyridin-2-yl)ethyl)cyclobutyl)homoserine] fall in the same range of IC50: 250 to 1000 nM for the first, 250 to 1000 nM for the second.

With `CC(C)(C(=O)NC(CCO[C@H]1C[C@H](CCc2ccc3c(n2)NCCC3)C1)C(=O)O)c1ccc(F)cc1` (stereo partly drawn) [Compound 102, N-(2-(4-fluorophenyl)-2-methylpropanoyl)-O-(trans-3-(2-(5,6,7,8-tetrahydro-1,8-naphthyridin-2-yl)ethyl)cyclobutyl)homoserine] the IC50 was < 50 nM.
